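Exposure lasted 48 hours, with cells grown in 96-well plates and compounds tested at five concentrations. GI50 is the concentration that inhibits growth by half. At the TGI there is no net growth.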
Columns and labels:
Assay in all cases: NCI tumour cell line growth inhibition, 48 h
ACHN renal = system: ACHN renal
KM12 colon = system: KM12 colon
UO-31 renal = system: UO-31 renal
HCT-15 colon = system: HCT-15 colon
NCI-H522 lung = system: NCI-H522 lung
OVCAR-5 ovarian = system: OVCAR-5 ovarian
A549 NSCLC = system: A549 NSCLC
HCT-116 colon = system: HCT-116 colon
HT29 colon = system: HT29 colon
SK-MEL-5 melanoma = system: SK-MEL-5 melanoma

Row | Structure (SMILES) | TGI (ACHN renal) | TGI (KM12 colon) | TGI (UO-31 renal) | TGI (HCT-15 colon) | TGI (NCI-H522 lung) | TGI (OVCAR-5 ovarian) | TGI (A549 NSCLC) | TGI (HCT-116 colon) | TGI (HT29 colon) | TGI (SK-MEL-5 melanoma) | GI50 (ACHN renal) | GI50 (KM12 colon) | GI50 (UO-31 renal) | GI50 (HCT-15 colon) | GI50 (NCI-H522 lung) | GI50 (OVCAR-5 ovarian) | GI50 (A549 NSCLC) | GI50 (HT29 colon) | GI50 (SK-MEL-5 melanoma) | GI50 (HCT-116 colon)
1 | N#CC(C(=O)C(=O)NCCCNC(=O)C(=O)C(C#N)c1ccccc1)c1ccccc1 (stereo not drawn) | > 100 µM | > 100 µM | > 100 µM | > 100 µM | > 100 µM | > 100 µM | > 100 µM | > 100 µM | > 100 µM | > 100 µM | – | – | – | – | – | – | – | – | – | –
2 | Cn1nc(-c2ccccc2)c(C(=O)/C=C/c2ccccc2)c(N2CCOCC2)c1=O | 39.9 µM | – | 28.1 µM | 57 µM | 29.9 µM | – | > 100 µM | 32.8 µM | 33 µM | 37.6 µM | – | – | – | – | – | – | – | – | – | –
3 | Clc1nc(Cl)c2ncn(Cc3ccc(COc4cccc(OCc5ccc(Cn6cnc7c(Cl)nc(Cl)nc76)cc5)c4)cc3)c2n1 | > 100 µM | > 100 µM | > 100 µM | > 100 µM | > 100 µM | > 100 µM | > 100 µM | – | > 100 µM | 95.5 µM | 45.4 µM | 58.2 µM | 51.5 µM | 28.8 µM | 61.9 µM | 49.8 µM | > 100 µM | > 100 µM | 14.3 µM | –
4 | N[C@H](C(=O)O)[C@H](Cl)CC(=O)O | > 100 µM | > 100 µM | > 100 µM | > 100 µM | > 100 µM | > 100 µM | > 100 µM | > 100 µM | > 100 µM | > 100 µM | – | – | – | – | – | – | – | – | – | –
5 | CC12CCC(=O)C=C1CCC1C2C(O)CC2(C)C(c3csc(N)n3)CCC12 (stereo not drawn) | > 100 µM | > 100 µM | > 100 µM | > 100 µM | > 100 µM | > 100 µM | > 100 µM | > 100 µM | > 100 µM | > 100 µM | – | – | – | – | – | – | – | – | – | –
6 | CCCCn1cnc2c(SC)ncnc21 | > 100 µM | > 100 µM | > 100 µM | > 100 µM | > 100 µM | > 100 µM | > 100 µM | > 100 µM | > 100 µM | > 100 µM | – | – | – | – | – | – | – | – | – | –
7 | COc1ccc2c(c1)OC(N(C(C)=O)C(C)=O)=C(C#N)C2c1ccc(F)cc1 (stereo not drawn) | > 100 µM | > 100 µM | > 100 µM | > 100 µM | 18.3 µM | > 100 µM | > 100 µM | > 100 µM | 18 µM | 18.3 µM | 4.18 µM | 0.664 µM | 4.19 µM | 0.683 µM | 0.619 µM | 7.65 µM | 4.45 µM | 2.55 µM | 1.98 µM | 1.26 µM
8 | CC(CNC(Cc1ccccc1)c1ccccc1)NC(Cc1ccccc1)c1ccccc1 (stereo not drawn) | 8.85 µM | 5.85 µM | 6.06 µM | 4.87 µM | 3.5 µM | 8.76 µM | 15 µM | 2.86 µM | 4.04 µM | 3.23 µM | 2.93 µM | 2.36 µM | 1.87 µM | 2 µM | 1.63 µM | 2.73 µM | 4.18 µM | 1.97 µM | 1.79 µM | 1.37 µM
9 | CCCCCCCCCCCCCCCC(=O)OCC1OC(n2c(O)c(N=NC(N)=S)c3ccc([N+](=O)[O-])cc32)C(OC(C)=O)C1OC(C)=O (stereo not drawn) | > 100 µM | > 100 µM | – | > 100 µM | > 100 µM | > 100 µM | > 100 µM | > 100 µM | > 100 µM | > 100 µM | – | – | – | – | – | – | – | – | – | –
10 | CC1=C(O)C(=O)C2C(=O)C1C(C)C2c1ccc(Cl)cc1 (stereo not drawn) | > 100 µM | > 100 µM | > 100 µM | > 100 µM | > 100 µM | > 100 µM | > 100 µM | – | > 100 µM | > 100 µM | – | – | – | – | – | – | – | – | – | –
11 | COc1cc(/C=C/C(=O)c2sc(Nc3ccccc3)nc2C)ccc1O | > 100 µM | > 100 µM | > 100 µM | > 100 µM | > 100 µM | > 100 µM | > 100 µM | – | > 100 µM | > 100 µM | – | – | – | – | – | – | – | – | – | –
12 | CC/C=C\C/C=C\C/C=C\CCCCCCCC(=O)OCC | > 100 µM | > 100 µM | > 100 µM | – | – | > 100 µM | > 100 µM | > 100 µM | > 100 µM | > 100 µM | – | – | – | – | – | – | – | – | – | –
13 | CC(=O)Oc1ccc(O)c(O)c1C/C=C(\C)CC/C=C(\C)CC/C=C(\C)CCC=C(C)C | 0.823 µM | 11.5 µM | 2.74 µM | – | 6.84 µM | 1.89 µM | 1.55 µM | – | 1.18 µM | – | – | – | – | – | – | – | – | – | – | –
14 | NC(C(=O)[O-])C(=O)[O-].NC1CCCCC1N.[Pt+4] | > 100 µM | > 100 µM | > 100 µM | > 100 µM | – | > 100 µM | > 100 µM | 26.6 µM | > 100 µM | 12 µM | 11.2 µM | 12.5 µM | 52.7 µM | 4.41 µM | – | 2.64 µM | 2.63 µM | 2.65 µM | 1.84 µM | 2.49 µM
15 | Cc1cc(=O)oc2cc3c(cc12)Oc1ccccc1O3 | > 100 µM | > 100 µM | > 100 µM | > 100 µM | – | > 100 µM | > 100 µM | > 100 µM | > 100 µM | > 100 µM | – | – | – | – | – | – | – | – | – | –
16 | O=C(O)c1cc(=O)c2[nH]c3ccccc3c2s1 | > 100 µM | > 100 µM | > 100 µM | > 100 µM | > 100 µM | > 100 µM | > 100 µM | – | – | > 100 µM | – | – | – | – | – | – | – | – | – | –
17 | COc1cccc(C2c3cc4c(cc3OC(O)(CO)C2C(=O)O)OCO4)c1 (stereo not drawn) (tested in a mixture with another compound) | > 100 µM | > 100 µM | > 100 µM | > 100 µM | – | > 100 µM | > 100 µM | > 100 µM | > 100 µM | > 100 µM | – | – | – | – | – | – | – | – | – | –
18 | S=c1[nH]c2ccc(Br)cc2c(=S)n1-c1ccccc1 | 79.3 µM | 72.5 µM | 59 µM | 63.2 µM | – | > 100 µM | > 100 µM | 43.9 µM | 47.7 µM | 35.5 µM | – | – | – | – | – | – | – | – | – | –
19 | CSc1nc2c(nc(N)n2C2OCC(O)C(O)C2O)c(=O)n1C (stereo not drawn) | > 100 µM | > 100 µM | > 100 µM | – | > 100 µM | – | > 100 µM | > 100 µM | > 100 µM | > 100 µM | – | – | – | – | – | – | – | – | – | –
20 | COc1cccc(C(=O)C2C(=O)N(C)CCc3ccccc32)c1OC (stereo not drawn) | > 100 µM | > 100 µM | > 100 µM | > 100 µM | > 100 µM | – | > 100 µM | > 100 µM | > 100 µM | > 100 µM | – | – | – | – | – | – | – | – | – | –

— PubChem BioAssay (NCI)
